According to US20250144067A1, “PERSONALIZED STARVATION THERAPY FOR CANCER” (Faeth Therapeutics, Inc., priority 2021, published 2025):
Structures can show the parent of a compound that is named as a salt. Where two headings read alike, the source gives them in different places.

Legend:
[1] = test system: NCI-H292 lung cancer cells; test: FDA drug screening, complete media vs cholesterol-free media with simvastatin (TABLE 2); assay type: cell-based, human
[2] = test system: NCI-H292 lung cancer cells; test: FDA drug screening, complete media vs cholesterol-free media without statin (TABLE 1); assay type: cell-based, human
[3] = NCI-H292 cells, drug in cholesterol-free media with simvastatin 0.04 μM
[4] = NCI-H292 cells, drug in complete media
[5] = complete media vs cholesterol-free media + simvastatin (0.04 μM), >0 enhanced anti-cancer activity, about 0 neutral, <0 antagonist
[6] = Complete minus Cholesterol-free, greater than 0 enhanced anti-cancer activity, about 0 neutral, below 0 antagonists
[7] = NCI-H292 cells in cholesterol-free media without statin
[8] = NCI-H292 cells in complete media
[9] = NCI-H292 cells, cholesterol-free media without statin
[10] = complete vs cholesterol-free media, greater than 0 enhanced anti-cancer activity, about 0 neutral, below 0 antagonists
[11] = NCI-H292 cells, cholesterol-free media without statin, FDA drug library screen
[12] = NCI-H292 cells, complete media, FDA drug library screen
[13] = complete vs cholesterol-free media, >0 enhanced anti-cancer activity, about 0 neutral, <0 antagonist
[14] = NCI-H292 cells, FDA library drug in cholesterol-free media with simvastatin 0.04 μM
[15] = NCI-H292 cells, FDA library drug in complete media
[16] = NCI-H292 cells, cholesterol-free media with simvastatin 0.04 μM, cell growth value in FDA drug screen
[17] = NCI-H292 cells, complete media, cell growth value in FDA drug screen
[18] = complete media minus cholesterol-free media + simvastatin, >0 enhanced anti-cancer activity, about 0 neutral, <0 antagonist
[19] = NCI-H292 cells, FDA drug library screen, cholesterol-free media with simvastatin 0.04 μM
[20] = NCI-H292 cells, FDA drug library screen, complete media
[21] = NCI-H292 cells, cholesterol-free media with simvastatin 0.04 μM, FDA drug library screen (TABLE 2)
[22] = NCI-H292 cells, complete media, FDA drug library screen (TABLE 2)
[23] = complete media minus cholesterol-free media + simvastatin (0.04 μM), >0 enhanced anti-cancer activity, about 0 neutral, <0 antagonist
[24] = Complete minus Cholesterol-free, greater than 0 enhanced anti-cancer activity, about 0 neutral, below 0 antagonist
[25] = NCI-H292 cells, FDA drug library screen, cholesterol-free media without statin
[26] = Complete minus Cholesterol-free, >0 enhanced anti-cancer activity, about 0 neutral, <0 antagonist

SMILES: OCC(O)CN1CCN(c2ccccc2)CC1 (stereo not drawn) [Dropropizine]
- Cholesterol-free media + simvastatin (0.04 μM) [1, 3]: 1.188
- Complete Media [1, 4]: 0.9581
- Difference [1, 5]: −0.23
- Difference [2, 6]: −0.56
- Cholesterol-free [2, 7]: 1.559
- Complete [2, 8]: 1

SMILES: C[C@]12CCC(=O)C=C1[C@@H]1C[C@@H]1[C@H]1[C@@H]3[C@@H]4C[C@@H]4[C@@]4(CCC(=O)O4)[C@@]3(C)CC[C@@H]12 [Drospirenone]
- Cholesterol-free media + simvastatin (0.04 μM) [1, 3]: 1.4
- Complete Media [1, 4]: 1.139
- Difference [1, 5]: −0.26
- Cholesterol-free [2, 9]: 1.382
- Complete ([2]; NCI-H292 cells, complete media): 1.062
- Difference [2, 10]: −0.32

SMILES: N[C@H](C(=O)O)[C@H](O)c1ccc(O)c(O)c1 [Droxidopa]
- Cholesterol-free media + simvastatin (0.04 μM) [1, 3]: 1.236
- Complete Media [1, 4]: 1.023
- Difference [1, 5]: −0.21
- Cholesterol-free [2, 11]: 0.9972
- Complete [2, 12]: 1.24
- Difference [2, 13]: 0.24

SMILES: CNCC[C@H](Oc1cccc2ccccc12)c1cccs1 [Duloxetine (hydrochloride)]
- Cholesterol-free media + simvastatin (0.04 μM) [1]: 1.089
- Complete Media [1]: 1.143
- Difference [1]: 0.05
- Cholesterol-free [2]: 1.331
- Complete [2]: 1.434
- Difference [2]: 0.10

SMILES: C[C@]12C=CC(=O)N[C@@H]1CC[C@@H]1[C@@H]2CC[C@]2(C)[C@@H](C(=O)Nc3cc(C(F)(F)F)ccc3C(F)(F)F)CC[C@@H]12 [Dutasteride]
- Cholesterol-free media + simvastatin (0.04 μM) [1]: 1.633
- Complete Media [1]: 1.205
- Difference [1]: −0.43
- Cholesterol-free [2]: 0.7204
- Complete [2]: 0.8443
- Difference [2]: 0.12

SMILES: C[C@H](Nc1ncnc2nc[nH]c12)c1cc2cccc(Cl)c2c(=O)n1-c1ccccc1 [Duvelisib]
- Cholesterol-free media + simvastatin (0.04 μM) [1, 14]: 1.228
- Complete Media [1, 15]: 0.8817
- Difference [1, 5]: −0.35
- Difference [2, 6]: −0.51
- Cholesterol-free [2, 7]: 1.444
- Complete [2, 8]: 0.9349

SMILES: CCCCOc1ccc(C(=O)CCN2CCCCC2)cc1 [Dyclonine (hydrochloride)]
- Cholesterol-free media + simvastatin (0.04 μM) [1, 16]: 0.8623
- Complete Media [1, 17]: 0.9661
- Difference [1, 18]: 0.10
- Cholesterol-free [2, 9]: 1.119
- Complete ([2]; NCI-H292 cells, complete media): 0.7824
- Difference [2, 10]: −0.34

SMILES: CC(=O)[C@H]1CC[C@H]2[C@@H]3C=CC4=CC(=O)CC[C@@]4(C)[C@@H]3CC[C@]12C [Dydrogesterone]
- Cholesterol-free media + simvastatin (0.04 μM) [1, 16]: 1.183
- Complete Media [1, 17]: 1.295
- Difference [1, 18]: 0.11
- Difference [2, 6]: −0.68
- Cholesterol-free [2, 7]: 1.745
- Complete [2, 8]: 1.064

SMILES: CC[C@H](C)C(=O)N1CCC(NC(=O)Nc2ccc(OC(F)(F)F)c(F)c2)CC1 [EC5026]
- Cholesterol-free media + simvastatin (0.04 μM) [1, 19]: 1.241
- Complete Media [1, 20]: 1.143
- Difference ([1]; complete media vs cholesterol-free media + simvastatin (0.04 μM), […]): −0.10
- Cholesterol-free [2, 9]: 1.148
- Complete ([2]; NCI-H292 cells, complete media): 0.7425
- Difference ([2]; complete vs cholesterol-free media, […]): −0.41

SMILES: CC(C)(C)c1ccc(C(=O)CCCN2CCC(OC(c3ccccc3)c3ccccc3)CC2)cc1 [Ebastine]
- Cholesterol-free media + simvastatin (0.04 μM) [1, 19]: 0.2638
- Complete Media [1, 20]: 1.066
- Difference [1, 18]: 0.80
- Difference [2, 6]: −0.60
- Cholesterol-free [2, 7]: 1.238
- Complete [2, 8]: 0.6382

SMILES: CC(C)c1cc2c(cc1S(=O)(=O)O)[C@@]1(C)CCC[C@@](C)(C(=O)O)[C@@H]1CC2 [Ecabet (sodium)]
- Cholesterol-free media + simvastatin (0.04 μM) [1, 3]: 1.124
- Complete Media [1, 4]: 0.9102
- Difference [1, 5]: −0.21
- Cholesterol-free [2, 9]: 1.17
- Complete ([2]; NCI-H292 cells, complete media): 0.8018
- Difference [2, 10]: −0.37

SMILES: CC1=NN(c2ccccc2)C(=O)C1 [Edaravone]
- Cholesterol-free media + simvastatin (0.04 μM) [1, 21]: 1.019
- Complete Media [1, 22]: 1.02
- Difference [1, 23]: 0.00
- Difference [2, 24]: −0.18
- Cholesterol-free [2, 25]: 1.236
- Complete [2, 20]: 1.052

SMILES: CN1CCc2nc(C(=O)N[C@@H]3C[C@@H](C(=O)N(C)C)CC[C@@H]3NC(=O)C(=O)Nc3ccc(Cl)cn3)sc2C1 [Edoxaban]
- Cholesterol-free media + simvastatin (0.04 μM) [1, 3]: 1.032
- Complete Media [1, 4]: 0.8097
- Difference [1, 5]: −0.22
- Cholesterol-free [2, 11]: 1.603
- Complete [2, 12]: 1.759
- Difference [2, 13]: 0.16

SMILES: CC[N+](C)(C)c1cccc(O)c1.[Cl-] [Edrophonium (chloride)]
- Cholesterol-free media + simvastatin (0.04 μM) ([1]; NCI-H292 cells, cholesterol-free media with simvastatin 0.04 μM, […]): 1.155
- Complete Media ([1]; NCI-H292 cells, complete media, […]): 1.199
- Difference ([1]; complete media minus cholesterol-free media + simvastatin, […]): 0.04
- Difference ([2]; Complete minus Cholesterol-free, […]): −0.15
- Cholesterol-free [2, 25]: 1.134
- Complete [2, 20]: 0.9821

SMILES: O=C1Nc2ccc(Cl)cc2[C@@](C#CC2CC2)(C(F)(F)F)O1 [Efavirenz]
- Cholesterol-free media + simvastatin (0.04 μM) [1, 16]: 1.215
- Complete Media [1, 17]: 1.301
- Difference [1, 18]: 0.09
- Cholesterol-free [2, 9]: 1.108
- Complete ([2]; NCI-H292 cells, complete media): 0.7866
- Difference [2, 10]: −0.32

SMILES: C=C1CCN([C@H](C)[C@](O)(Cn2cncn2)c2ccc(F)cc2F)CC1 [Efinaconazole]
- Cholesterol-free media + simvastatin (0.04 μM) [1, 19]: 0.5953
- Complete Media [1, 20]: 1.082
- Difference [1, 18]: 0.49
- Cholesterol-free [2, 9]: 1.307
- Complete ([2]; NCI-H292 cells, complete media): 0.8534
- Difference [2, 10]: −0.45

SMILES: NCCCC(N)(C(=O)O)C(F)F (stereo not drawn) [Eflornithine (hydrochloride hydrate)]
- Cholesterol-free media + simvastatin (0.04 μM) [1, 3]: 1.426
- Complete Media [1, 4]: 1.224
- Difference [1, 5]: −0.20
- Difference [2, 26]: −0.22
- Cholesterol-free [2, 9]: 0.965
- Complete ([2]; NCI-H292 cells, complete media): 0.7419

SMILES: CCOC(=O)COc1ccc2c(=O)cc(-c3ccccc3)oc2c1 [Efloxate]
- Cholesterol-free media + simvastatin (0.04 μM) [1, 19]: 1.124
- Complete Media [1, 20]: 0.9754
- Difference [1, 5]: −0.15
- Cholesterol-free [2, 9]: 1.349
- Complete ([2]; NCI-H292 cells, complete media): 0.929
- Difference [2, 10]: −0.42

SMILES: CC/C=C\C/C=C\C/C=C\C/C=C\C/C=C\CCCC(=O)O [Eicosapentaenoic Acid]
- Cholesterol-free media + simvastatin (0.04 μM) [1, 19]: 1.13
- Complete Media [1, 20]: 1.471
- Difference [1, 18]: 0.34
- Difference [2, 24]: −0.10
- Cholesterol-free [2, 25]: 1.072
- Complete [2, 20]: 0.969

SMILES: COc1cccc(-c2c(C)n(Cc3c(F)cccc3C(F)(F)F)c(=O)n(C[C@H](NCCCC(=O)O)c3ccccc3)c2=O)c1F [Elagolix sodium]
- Cholesterol-free media + simvastatin (0.04 μM) [1, 19]: 1.413
- Complete Media [1, 20]: 1.627
- Difference [1, 18]: 0.21
- Difference [2, 6]: −0.93
- Cholesterol-free [2, 7]: 1.728
- Complete [2, 8]: 0.7978

SMILES: COC(=O)N[C@H](C(=O)N1CCC[C@H]1c1nc(-c2ccc3c(c2)O[C@@H](c2ccccc2)n2c-3cc3cc(-c4c[nH]c([C@@H]5CCCN5C(=O)[C@@H](NC(=O)OC)C(C)C)n4)ccc32)c[nH]1)C(C)C [Elbasvir]
- Cholesterol-free media + simvastatin (0.04 μM) [1, 21]: 0.9746
- Complete Media [1, 22]: 0.9378
- Difference [1, 23]: −0.04
- Difference [2, 6]: −0.70
- Cholesterol-free [2, 7]: 1.334
- Complete [2, 8]: 0.6346

SMILES: CN1CCC[C@@H]1Cc1c[nH]c2ccc(CCS(=O)(=O)c3ccccc3)cc12 [Eletriptan (hydrobromide)]
- Cholesterol-free media + simvastatin (0.04 μM) [1, 14]: 1.33
- Complete Media [1, 15]: 0.9128
- Difference [1, 5]: −0.42
- Cholesterol-free [2, 9]: 1.406
- Complete ([2]; NCI-H292 cells, complete media): 1.08
- Difference [2, 10]: −0.33

SMILES: CCCCCCCC(=O)N[C@H](CN1CCCC1)[C@H](O)c1ccc2c(c1)OCCO2 [Eliglustat]
- Cholesterol-free media + simvastatin (0.04 μM) [1, 14]: 1.086
- Complete Media [1, 15]: 0.6384
- Difference [1, 5]: −0.45
- Difference [2, 26]: −0.30
- Cholesterol-free [2, 9]: 1.155
- Complete ([2]; NCI-H292 cells, complete media): 0.8552
